Laboratory results as given in patent US20080045560A1, “Pyrrolidine and related derivatives useful as PR modulators” (Wyeth, priority 2006, published 2008).
pIC50: −log10 of the molar value.

How the values were obtained:
[1] = system: progesterone receptor (alkaline phosphatase activity in T47D cells); assay: Effects of progestins and antiprogestins on alkaline phosphatase activity in T47D cells (antagonist mode); assay type: cell-based; conditions: Homo sapiens, in the presence of 1 nM progesterone, 24 h; for inhibition at 0.003 µM: at 3 nM
Description: (1) Effects of Progestins and Antiprogestins on Alkaline Phosphatase Activity in T47D Cells.
• PURPOSE: To identify progestins or antiprogestins by determining a compound's effect on alkaline phosphatase activity in T47D cells.
Culture medium: • DMEM:F12 (1:1) (GIBCO, BRL) supplemented with 5% (v/v) charcoal stripped fetal bovine serum (not heat-inactivated), 100 U/mL penicillin, 100 μg/mL streptomycin, and 2 mM the GlutaMax™ reagent (GIBCO, BRL).
Alkaline phosphatase assay buffer: • I. 0.1M Tris-HCl, pH 9.8, containing 0.2% the Triton® X-100 reagent • II. 0.1M Tris-HCl, pH 9.8, containing 4 mM p-nitrophenyl phosphate (Sigma).
Frozen T47D cells were thawed in a 37° C. water bath and diluted to 280,000 cells/mL in culture medium. To each well in a 96-well plate (Falcon, Becton Dickinson Labware), 180 μL of diluted cell suspension was added.
Twenty μL of reference or test compounds diluted in the culture medium was then added to each well. When testing for progestin antagonist activity, reference antiprogestins or test compounds were added in the presence of 1 nM progesterone. The cells were incubated at 37° C. in a 5% CO2/humidified atmosphere for 24 h. NOTE: For high throughput screening, one concentration of each compound was tested at 0.3 μg/mL. Based on an average molecular weight of 300 g/mol for the compounds in the library, the concentration was approximately 1 μM. Subsequently, active compounds were tested in dose response assays to determine EC50 and IC50.
At the end of treatment, the medium was removed from the plate. Fifty μL of assay buffer I was added to each well. The plates were shaken in a titer plate shaker for 15 min. Then 150 μL of assay buffer II was added to each well. Optical density measurements were taken at 5 min intervals for 30 min at a test wavelength of 405 nm.
For reference and test compounds, a dose response curve was generated for dose (X-axis) vs. the rate of enzyme reaction (slope) (Y-axis). Square root-transformed data was used for analysis of variance and nonlinear dose response curve fitting for both agonist and antagonist modes. Huber weighting was used to down-weight the effects of outliers. EC50 or IC50 values were calculated from the retransformed values. JMP software (SAS Institute, Inc.) was used for both one-way analysis of variance and non-linear dose response analysis in both single dose and dose response studies.
Progesterone and trimegestone were reference progestins and RU486 was the reference antiprogestin. All reference compounds were run in full dose response curves and the EC50 and IC50 values were calculated.

Row | melting point | pIC50 [1] | SMILES | also measured
1 | 197 to 199 °C |  | C[C@@H]1COC(=O)N1c1nc(-c2ccc(Br)cc2)cs1 [Example 1, (4R)-3-[4-(4-Bromophenyl)-1,3-thiazol-2-yl]-4-methyl-1,3-oxazolidin-2-one] | 
2 | 145 to 147 °C |  | CCC1(CC)COC(=O)N1c1nc(-c2ccc(C#N)cc2)cs1 [Example 2, 4-[2-(4,4-Diethyl-2-oxo-1,3-oxazolidin-3-yl)-1,3-thiazol-4-yl]benzonitrile] | 
3 | 181 to 183 °C |  | CC1(C)COC(=O)N1c1nc(-c2cccc(C#N)c2)cs1 [Example 3, 3-[2-(4,4-dimethyl-2-oxo-1,3-oxazolidin-3-yl)-1,3-thiazol-4-yl]benzonitrile] | 
4 |  |  | CC1(C)C=CC(=O)N1c1nc(-c2ccc(C#N)cc2)cs1 [Example 7, 4-[2-(2,2-Dimethyl-5-oxo-2,5-dihydro-1H-pyrrol-1-yl)-1,3-thiazol-4-yl]benzonitrile] | inhibition at 0.003 µM [1]: 60%
5 |  |  | CC1(C)CCC(=O)N1c1nc(-c2ccc(C#N)cc2)cs1 [Example 8, 4-[2-(2,2-Dimethyl-5-oxopyrrolidin-1-yl)-1,3-thiazol-4-yl]benzonitrile] | inhibition at 0.003 µM [1]: 50%
6 |  | 7.50 | CC1(C)CCC(=O)N1c1nc(-c2ccc(C#N)cc2)c(F)s1 [Example 9, 4-[2-(2,2-Dimethyl-5-oxopyrrolidin-1-yl)-5-fluoro-1,3-thiazol-4-yl]benzonitrile] | 
7 |  | 7.35 | O=C1C2CCC(CC2)N1c1nc(-c2ccc(Br)cc2)cs1 [Example 10, 2-[4-(4-bromophenyl)-1,3-thiazol-2-yl]-2-azabicyclo[2.2.2]octan-3-one] | 
8 |  | 8.32 | N#Cc1ccc(-c2csc(N3C(=O)C4CCC3CC4)n2)cc1 [Example 11, 4-[2-(3-oxo-2-azabicyclo[2.2.2]oct-2-yl)-1,3-thiazol-4-yl]benzonitrile] | 
